In PMC9161444, “In-Membrane Nanostructuring of Cationic Amphiphiles Affects Their Antimicrobial Efficacy and Cytotoxicity: A Comparison Study between a De Novo Antimicrobial Lipopeptide and Traditional Biocides” (Langmuir, 2022):
Several values for one entry are separate records, joined by “and”; a condition that tells them apart may be missing. Equal entries are not always repeated. Where two headings read alike, the source gives them in different places.

Tests used:
[1] = test system: C. albicans SC5314 (ATCC MYA-2876); format: cell-based, Candida albicans; conditions: for MIC/CAC, converted data, C. albicans: MIC divided by the amphiphile's CAC; for MIC, C. albicans: microdilution in RPMI 1640, 30 °C, 48 h, 10^5 CFU/mL, by eye and OD600, ± SD, at least three replicates
Protocol: E. coli (ATCC 25922), S. aureus (ATCC 6538), and C. albicans SC5314 (ATCC MYA-2876) were purchased from the American Type Culture Collection (ATCC). The two bacterial strains, E. coli and S. aureus, were cultured in Mueller Hinton broth at 37 °C; while the yeast strain, C. albicans, was grown in RPMI 1640 medium at 30 °C. The microdilution method was employed to determine MICs of the amphiphiles against the microorganism strains listed above.[21] Solutions of lipopeptides and biocides were half-diluted serially in 96-well plates using PBS buffer containing 137 mM NaCl, 2.7 mM KCl, 8.1 mM Na2HPO4, and 1.9 mM KH2PO4 for E. coli and S. aureus and using RPMI 1640 for C. albicans. Overnight incubations of the strains, in each respective growth medium, were then inoculated into each well, giving final concentrations of 10^6 CFU/mL for E. coli and S. aureus and 10^5 CFU/mL for C. albicans. Culture media without microorganisms and amphiphiles were employed as positive controls, while fresh microorganism cultures without amphiphiles were used as negative controls. Each plate has both positive controls and negative controls. The plates were then incubated at an appropriate temperature (stated above) for 24 h for the bacterial strains and 48 h for the yeast strain. MICs of each sample were first determined by eye. A more quantitative analysis was carried out by measuring optical densities at 600 nm (OD600) of each well using a Sunrise absorbance microplate reader (Tecan Group Ltd.). Inhibitory ratios (IRs) of each sample at a given concentration against a specific strain, denoted as IRi, were calculated by IRi = (OD600,negative control – OD600,i)/(OD600,negative control – OD600,positive control) × 100%. All experiments were repeated at least three times with each group containing three replicates. To better analyze concentration–IR relationships, sigmoidal function fittings were employed to generate the best fitted dose response curve for each situation.

[2] = test system: Human dermal fibroblasts cells (adult, HDFa cells); format: cell-based; conditions: MTT assay, 24 h exposure, 37 °C, absorbance 570 nm, sigmoidal fit; ± SD, at least three replicates; read-out: EC50, HDFa
Protocol: (§1) Human dermal fibroblasts cells (adult, HDFa cells) and NIH 3T3 fibroblasts cells (3T3 cells, ATCC-1658) were cultured at 37 °C in Dulbecco’s modified Eagle medium (ATCC30-2002, added with 10% heat-inactivated fetal bovine serum) with a continuous supply of CO2 at a 5% level. MTT assays were carried out to examine in vitro cytotoxicity of the amphiphiles.[22] Cells were first inoculated in flat-bottom 96-well plates, rendering 8 × 10^3 cells in 100 μL of medium for each well, and were incubated for 24 h. The cells were mixed with 100 μL of a solution of an amphiphile with 2 times the selected concentrations. Cells were then exposed to the solutions of each amphiphile for 24 h, after which 10 μL of 5 mg/mL MTT solution was added into each well, and the reaction was allowed for 2 h. 200 μL of dimethyl sulfoxide was then added to each well to dissolve the transformed MTT formazan. Light absorbance of the samples was measured using a Thermo Scientific Varioskan LUX at 570 nm. Cell samples 100% viable and 100% dead were employed as the positive control and negative control, respectively. Dose response curves were obtained by applying sigmoidal function fittings to obtain 50% effective concentrations (EC50).

[3] = test system: NIH 3T3 fibroblasts cells (3T3 cells, ATCC-1658); format: cell-based; conditions: MTT assay, 24 h exposure, 37 °C, absorbance 570 nm, sigmoidal fit; ± SD, at least three replicates; read-out: EC50, NIH/3T3
Protocol: as §1

[4] = Fluorescein (CF) leakage from SUVs; conditions: for threshold concentration of fast leakage increase, PC/PG SUVs: end of the low leakage induction range; for concentration for 20% leakage, PC/Chol. vesicles / concentration for 20% leakage, PC/PG vesicles / concentration for 100% leakage, PC/Chol. vesicles / concentration for 100% leakage, PC/PG vesicles / concentration for minimal leakage, PC/Chol. vesicles / concentration for minimal leakage, PC/PG vesicles / EC50: CF-SUVs 0.25 mg/mL in TBS pH 7.2, fluorescence ex 480/em 520 nm, read from Figure 5
Protocol: Lipid SUVs with single or multiple components were used to model different biomembranes. In this work, two lipid mixtures with different surface charges were used to mimic bacterial inner membranes with the molar ratio of POPC/POPG of 7:3 and mammalian cytoplasmic cell membranes with a molar ratio of POPC/cholesterol of 1:1. Lipids (or cholesterol) were dissolved and mixed in chloroform, and then, the solvent was removed via evaporation and lyophilization. Dry lipids were dissolved in Tris buffered saline (TBS, containing 10 mM Tris-HCl and 154 mM NaCl, with a final pH of 7.2) and were fully dispersed via sonication. After five freeze/thaw loops of the lipid solution, SUVs were prepared by extruding 31 times using an Avanti Polar Lipids mini extruder. SUV solutions were diluted to 0.5 mg/ml for further use.
Concentration effects of the binding of amphiphiles to lipid SUVs were examined by means of fluorescein leakage. 5(6)-Carboxyfluorescein (CF)-entrapped SUVs (CF-SUVs) were prepared as described previously,[26] except that dried lipids were dissolved into 40 mM TBS solution of CF before the freeze/thaw loop. After extrusion, CF-SUVs were separated from unentrapped fluorescein molecules using a Sephadex G50 chromatography column. Amphiphile solutions of various concentrations were then blended in a 1:1 ratio with CF-SUVs, giving a mixture of amphiphiles of the desired concentration and CF-SUVs of concentration 0.25 mg/mL. A Thermo Scientific Varioskan LUX was employed to determine the amount of released CF in each sample by measuring their emission intensity I520, with an excitation wavelength of 480 nm and an emission wavelength of 520 nm. CF-SUVs alone and with added 0.2% Triton-X were measured as positive and negative controls (I+ and I–), respectively. The percentage of leakage L for each sample was calculated using Ln = (In,520 – I+)/(I– – I+) × 100%.

[5] = read-out: concentration for 50% leakage, PC/Chol. vesicles
[6] = read-out: concentration for 50% leakage, PC/PG vesicles

Structure (SMILES) | MIC/CAC, converted data, C. albicans [1] | MIC, C. albicans [1] [µM] | EC50 [2] [µM] | EC50 [3] [µM] | concentration above which fast leakage was induced, PC/chol SUVs ([4]; CF leakage, end of the low leakage induction period) [µM] | threshold concentration of fast leakage increase, PC/PG SUVs ([4]; CF leakage) [µM] | concentration for 20% leakage, PC/Chol. vesicles [4] [µM] | concentration for 20% leakage, PC/PG vesicles [4] [µM] | concentration for 100% leakage, PC/Chol. vesicles [4] [µM] | concentration for 100% leakage, PC/PG vesicles [4] | concentration for minimal leakage, PC/Chol. vesicles [4] | concentration for minimal leakage, PC/PG vesicles [4] | EC50 [4, 5] [µM] | EC50 [4, 6] [µM] | leakage, PC/PG SUVs ([4]; at 256 μM) [%] | leakage, PC/PG SUVs ([4]; from 16 to 75 μM) | maximum leakage, PC/chol SUVs ([4]; at 100 μM and above) [%]
CCCCCCCCCCCC[N+](C)(C)C.[Br-] [C12TAB, dodecyltrimethylammonium bromide] | 0.10 ± 0.03 | 100 ± 30 | 17 ± 5 | 12 ± 4 | ~70 | 75 | 500 | 125 | >2000 | above 1000 μM and 1000 μM | 10 µM | around 16 μM and 75 μM | 2000 | 256 | 60 | less than 10% | –
CCCCCCCCCCCCCC[N+](C)(C)C.[Br-] [C14TAB, tetradecyltrimethylammonium bromide] | 0.12 ± 0.02 | 12 ± 2 | 7 ± 3 | 3 ± 1 | – | 16 | 10 | 30 | >500 | 500 µM | around 4 μM | 4 µM | 100 | 50 | – | – | 50
